The numbers were not newly measured in patent US20220265671A1, “METHOD FOR TREATING STROKE BY USING TRICYCLIC DERIVATIVE” (Jeil Pharmaceutical Co., Ltd., priority 2019, published 2022), which cites them from elsewhere.

This data set deals with tMCAO animal model. Conditions: Molecular Neurobiology 55(9859), January 2018; cited from earlier work.

Regarding `CCOc1cc(CN2CCOCC2)cc2[nH]c(=O)c3c(c12)NCCC3` [10-ethoxy-8-(morpholinomethyl)-1,2,3,4-tetrahydrobenzo[h][1,6]naphthyridin-5(6H)-one], the “reducing cerebral infarction volume” value is on record as “effective in reducing cerebral infarction volume”.
